Data as given in patent publication US10919877B2, “Multifunctional inhibitors of MEK/PI3K and mTOR/MEK/PI3K biological pathways and therapeutic methods using the same” (THE REGENTS OF THE UNIVERSITY OF MICHIGAN, priority 2016, dated 2021).
Several values for one entry are separate records, joined by “and”; a condition that tells them apart may be missing. Equal values may be shown once. Read-outs that look alike come from different tables or passages of the source.

Key:
PI3Kδ = target: T1, PI3Kδ (Homo sapiens, UniProt O00329); assay: PI3K subtype enzyme inhibition; type: biochemical
T1 construct: purchased Life Technologies (assay run by the vendor)
T1 sequence (O00329 whole entry): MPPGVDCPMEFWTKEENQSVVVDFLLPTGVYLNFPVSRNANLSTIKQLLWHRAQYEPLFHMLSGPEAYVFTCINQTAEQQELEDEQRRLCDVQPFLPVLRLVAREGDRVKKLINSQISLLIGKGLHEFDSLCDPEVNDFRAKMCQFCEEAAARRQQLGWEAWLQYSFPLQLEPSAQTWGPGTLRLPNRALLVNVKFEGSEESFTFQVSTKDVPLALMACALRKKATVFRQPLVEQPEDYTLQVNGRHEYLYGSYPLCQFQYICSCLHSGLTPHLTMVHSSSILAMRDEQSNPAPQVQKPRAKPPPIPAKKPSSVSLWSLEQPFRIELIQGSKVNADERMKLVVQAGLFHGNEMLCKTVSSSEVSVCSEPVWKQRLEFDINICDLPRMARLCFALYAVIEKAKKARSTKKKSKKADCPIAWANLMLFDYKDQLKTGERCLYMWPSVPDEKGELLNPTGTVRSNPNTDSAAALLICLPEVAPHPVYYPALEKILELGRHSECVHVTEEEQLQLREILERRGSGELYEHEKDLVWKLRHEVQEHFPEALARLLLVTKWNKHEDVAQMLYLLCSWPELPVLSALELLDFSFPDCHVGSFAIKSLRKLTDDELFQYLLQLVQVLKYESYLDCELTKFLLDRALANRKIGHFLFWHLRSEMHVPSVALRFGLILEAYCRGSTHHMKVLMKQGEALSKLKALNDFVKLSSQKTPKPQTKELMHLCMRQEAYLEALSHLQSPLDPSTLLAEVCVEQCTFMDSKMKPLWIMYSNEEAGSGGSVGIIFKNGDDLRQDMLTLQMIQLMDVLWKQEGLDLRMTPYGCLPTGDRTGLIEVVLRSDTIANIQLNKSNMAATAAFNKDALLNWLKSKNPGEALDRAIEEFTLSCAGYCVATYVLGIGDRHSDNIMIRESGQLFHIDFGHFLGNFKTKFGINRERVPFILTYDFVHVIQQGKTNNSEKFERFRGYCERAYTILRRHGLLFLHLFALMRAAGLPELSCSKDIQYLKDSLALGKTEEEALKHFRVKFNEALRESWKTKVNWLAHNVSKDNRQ
T1 sequence (P27986 whole entry partner): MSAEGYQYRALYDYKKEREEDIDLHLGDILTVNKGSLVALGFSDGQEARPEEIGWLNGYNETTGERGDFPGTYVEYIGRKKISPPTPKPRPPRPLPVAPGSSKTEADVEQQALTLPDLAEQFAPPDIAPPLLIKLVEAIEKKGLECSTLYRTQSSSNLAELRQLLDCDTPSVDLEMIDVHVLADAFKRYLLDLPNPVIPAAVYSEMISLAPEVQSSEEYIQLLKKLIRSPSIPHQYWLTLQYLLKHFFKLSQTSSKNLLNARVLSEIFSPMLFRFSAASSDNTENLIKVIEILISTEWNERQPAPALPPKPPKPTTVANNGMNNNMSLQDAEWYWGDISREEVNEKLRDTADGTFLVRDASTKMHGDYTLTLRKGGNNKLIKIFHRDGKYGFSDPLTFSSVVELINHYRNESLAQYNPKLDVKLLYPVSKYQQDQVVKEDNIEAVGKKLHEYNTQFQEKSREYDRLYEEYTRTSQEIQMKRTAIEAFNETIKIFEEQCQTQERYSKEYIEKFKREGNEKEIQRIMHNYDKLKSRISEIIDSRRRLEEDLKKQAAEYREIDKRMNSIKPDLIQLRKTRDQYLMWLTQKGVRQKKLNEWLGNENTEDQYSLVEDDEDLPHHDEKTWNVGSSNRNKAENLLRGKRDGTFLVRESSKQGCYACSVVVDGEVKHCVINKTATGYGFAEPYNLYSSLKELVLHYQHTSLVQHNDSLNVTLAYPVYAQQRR

PI3Kα = target: T2, PI3Kα (Homo sapiens, UniProt P42336); assay: PI3K subtype enzyme inhibition; type: biochemical
T2 construct: purchased Life Technologies (assay run by the vendor)
T2 sequence (P42336 whole entry): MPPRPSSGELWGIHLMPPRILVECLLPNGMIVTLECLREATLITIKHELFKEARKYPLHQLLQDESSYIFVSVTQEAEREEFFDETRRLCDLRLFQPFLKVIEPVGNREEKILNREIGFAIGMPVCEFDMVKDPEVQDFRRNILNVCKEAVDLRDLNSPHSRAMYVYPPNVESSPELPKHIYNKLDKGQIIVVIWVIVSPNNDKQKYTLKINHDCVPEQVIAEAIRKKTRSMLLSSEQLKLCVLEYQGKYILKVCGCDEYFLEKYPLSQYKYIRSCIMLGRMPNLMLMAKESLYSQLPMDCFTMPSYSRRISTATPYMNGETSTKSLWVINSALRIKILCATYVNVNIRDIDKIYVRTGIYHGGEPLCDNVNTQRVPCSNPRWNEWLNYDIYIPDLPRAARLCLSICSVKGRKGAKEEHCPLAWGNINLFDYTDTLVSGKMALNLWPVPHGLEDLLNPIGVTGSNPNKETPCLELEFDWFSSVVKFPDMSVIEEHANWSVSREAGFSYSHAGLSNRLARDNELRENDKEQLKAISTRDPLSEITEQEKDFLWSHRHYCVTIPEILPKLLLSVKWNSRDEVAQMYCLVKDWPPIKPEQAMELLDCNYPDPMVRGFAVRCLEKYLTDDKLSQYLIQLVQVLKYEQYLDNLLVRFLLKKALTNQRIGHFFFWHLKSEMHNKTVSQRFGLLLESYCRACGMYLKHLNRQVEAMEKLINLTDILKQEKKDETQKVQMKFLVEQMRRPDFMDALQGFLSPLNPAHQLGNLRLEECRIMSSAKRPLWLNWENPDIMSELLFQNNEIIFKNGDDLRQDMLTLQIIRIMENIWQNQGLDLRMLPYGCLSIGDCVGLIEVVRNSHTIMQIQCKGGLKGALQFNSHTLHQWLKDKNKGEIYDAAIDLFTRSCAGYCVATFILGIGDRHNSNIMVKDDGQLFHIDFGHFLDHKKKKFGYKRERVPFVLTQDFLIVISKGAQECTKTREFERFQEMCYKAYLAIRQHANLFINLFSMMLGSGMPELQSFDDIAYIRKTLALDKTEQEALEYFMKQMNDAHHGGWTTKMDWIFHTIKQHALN
T2 sequence (P27986 whole entry partner): as the sequence (P27986 whole entry partner) above

PI3Kβ = target: T3, PI3Kβ (Homo sapiens, UniProt P42338); assay: PI3K subtype enzyme inhibition; type: biochemical
T3 construct: purchased Life Technologies (assay run by the vendor)
T3 sequence (P42338 whole entry): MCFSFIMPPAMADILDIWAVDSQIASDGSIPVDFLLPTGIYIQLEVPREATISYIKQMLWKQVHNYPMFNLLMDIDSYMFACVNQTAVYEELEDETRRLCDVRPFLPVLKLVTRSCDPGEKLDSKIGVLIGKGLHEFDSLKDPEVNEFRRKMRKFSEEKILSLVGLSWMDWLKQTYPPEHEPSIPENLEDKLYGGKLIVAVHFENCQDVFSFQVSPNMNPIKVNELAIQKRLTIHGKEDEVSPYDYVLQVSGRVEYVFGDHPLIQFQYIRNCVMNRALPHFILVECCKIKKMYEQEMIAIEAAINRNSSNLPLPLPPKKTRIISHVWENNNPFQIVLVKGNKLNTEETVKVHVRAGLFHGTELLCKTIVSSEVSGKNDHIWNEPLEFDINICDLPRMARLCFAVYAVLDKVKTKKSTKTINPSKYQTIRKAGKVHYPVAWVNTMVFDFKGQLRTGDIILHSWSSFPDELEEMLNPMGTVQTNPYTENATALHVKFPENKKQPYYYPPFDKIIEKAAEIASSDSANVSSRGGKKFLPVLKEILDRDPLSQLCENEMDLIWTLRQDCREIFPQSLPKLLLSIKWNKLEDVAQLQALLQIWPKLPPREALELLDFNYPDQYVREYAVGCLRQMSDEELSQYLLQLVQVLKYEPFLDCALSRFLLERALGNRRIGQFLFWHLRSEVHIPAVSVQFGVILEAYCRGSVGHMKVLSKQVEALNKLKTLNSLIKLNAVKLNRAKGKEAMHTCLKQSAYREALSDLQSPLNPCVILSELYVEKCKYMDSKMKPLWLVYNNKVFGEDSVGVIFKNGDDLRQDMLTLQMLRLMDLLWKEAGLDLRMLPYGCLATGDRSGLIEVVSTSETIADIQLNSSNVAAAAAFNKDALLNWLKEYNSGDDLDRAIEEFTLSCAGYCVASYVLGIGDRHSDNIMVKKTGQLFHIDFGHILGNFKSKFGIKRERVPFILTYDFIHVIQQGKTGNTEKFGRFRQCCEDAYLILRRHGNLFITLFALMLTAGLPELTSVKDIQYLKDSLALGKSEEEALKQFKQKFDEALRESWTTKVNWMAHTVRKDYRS
T3 sequence (P27986 whole entry partner): as the sequence (P27986 whole entry partner) above

mTOR = mTOR (Homo sapiens, UniProt P42345); assay: mTOR enzyme inhibition; type: biochemical
PI3Kγ = target: T4, PI3Kγ (Homo sapiens, UniProt P48736); assay: PI3K subtype enzyme inhibition; type: biochemical
T4 construct: purchased Life Technologies (assay run by the vendor)
T4 sequence (P48736 whole entry): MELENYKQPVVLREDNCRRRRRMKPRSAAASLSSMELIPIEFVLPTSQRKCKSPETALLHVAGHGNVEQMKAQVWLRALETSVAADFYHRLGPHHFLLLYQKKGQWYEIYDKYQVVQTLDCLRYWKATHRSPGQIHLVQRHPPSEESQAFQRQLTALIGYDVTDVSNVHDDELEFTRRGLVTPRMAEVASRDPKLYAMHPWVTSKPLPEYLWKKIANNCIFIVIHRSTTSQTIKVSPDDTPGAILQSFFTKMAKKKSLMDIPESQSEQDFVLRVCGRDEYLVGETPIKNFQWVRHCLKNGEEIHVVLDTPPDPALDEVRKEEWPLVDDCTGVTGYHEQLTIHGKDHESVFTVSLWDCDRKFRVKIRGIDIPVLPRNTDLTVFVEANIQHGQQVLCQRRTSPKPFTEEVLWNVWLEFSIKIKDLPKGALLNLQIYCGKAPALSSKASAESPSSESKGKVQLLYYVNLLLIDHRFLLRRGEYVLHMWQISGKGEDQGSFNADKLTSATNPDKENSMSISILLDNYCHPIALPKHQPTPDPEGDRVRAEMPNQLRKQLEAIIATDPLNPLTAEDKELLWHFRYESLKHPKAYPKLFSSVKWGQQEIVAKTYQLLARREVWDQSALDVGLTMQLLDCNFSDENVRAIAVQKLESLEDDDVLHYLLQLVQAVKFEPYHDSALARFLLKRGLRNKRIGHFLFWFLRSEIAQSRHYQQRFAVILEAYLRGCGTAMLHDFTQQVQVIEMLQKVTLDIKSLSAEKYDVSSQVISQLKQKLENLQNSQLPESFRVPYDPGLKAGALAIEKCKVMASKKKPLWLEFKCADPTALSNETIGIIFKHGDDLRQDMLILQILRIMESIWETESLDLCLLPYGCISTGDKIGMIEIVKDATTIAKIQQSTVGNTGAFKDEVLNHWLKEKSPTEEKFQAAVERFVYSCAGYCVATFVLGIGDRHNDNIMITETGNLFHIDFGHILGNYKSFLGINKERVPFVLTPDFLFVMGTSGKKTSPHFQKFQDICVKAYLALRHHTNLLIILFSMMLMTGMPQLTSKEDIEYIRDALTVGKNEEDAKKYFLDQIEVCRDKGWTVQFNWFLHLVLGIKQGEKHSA

PI3K = PI3K (Homo sapiens, UniProt P42336); assay: In vitro PI3K inhibition assay (Adapta TR-FRET); type: biochemical; details: average of three experiments each conducted in duplicate
Experimental: In Vitro PI3K Inhibition Assays.
Quantitation of PI3K lipid kinase activity was carried out by Life Technologies (Madison, Wis.) with purified enzyme using the fluorescence-based Adapta TR-FRET assay protocol. Assays were conducted in triplicate with various inhibitor concentrations (0.1 nM to 10 μM).

MEK1 = target: T5, MEK1 (Homo sapiens, UniProt Q02750); assay: In vitro MEK1 inhibition assay (Kinase-Glo luminescent kinase assay); type: biochemical; details: average of three experiments each conducted in duplicate
T5 construct: purchased Sigma-Aldrich
Experimental: In Vitro MEK1 Inhibition Assays.
In vitro MEK1 inhibition activity of inhibitor analogs were determined using Kinase-Glo luminescent kinase assay kits from Promega (WI, USA) per manufacturer's instructions. […] Briefly, series of compound dilutions were added in 96-well plates, followed by MEK1, Erk2, and ATP solutions. Kinase reactions were run at 30° C. for 30 minutes. Equal volumes of Kinase-Glo solution were then added, and reactions were incubated at room temperature for a further 30 minutes. Bioluminescence signals were acquired with an Envision multilabel reader from Perkin Elmer. Assays were conducted in triplicate with various inhibitor concentrations each run in duplicate. IC50 data were calculated using GraphPad Prism software (version 5.0, La Jolla, Calif.).

[1] = system: A375 (melanoma), D54 (glioma), CT26 colorectal cancer, A2058 (melanoma) cell lines; assay: Concurrent inhibition in tumor cell lines (multifunctional inhibitors); type: cell-based
Excerpt: The synthesis of another series of single entity, multifunctional inhibitors achieved by covalent linking of structural analogs of a PI3K inhibitor mTOR inhibitor, and an MEK inhibitor is also disclosed.

[2] = system: pAkt in A549 and D54 cells; assay: Cellular PI3K inhibition, Western blot of pAkt in cultured tumor cells; type: cell-based, human; details: cultured A549 cells, 1 hour, Western blot vs DMSO
Experimental: The in vitro MEK1 and PI3K inhibitory activity of these series of compounds was also assessed in cultured tumor cells (D54, A549). Cellular efficacy of MEK1 and PI3K inhibition by inhibitor compounds was measured by changes in phosphorylation of pErk1/2 and pAkt, respectively. […] Cells were incubated in the presence of indicated compounds for 1 hour and lysates probed with specific antibodies against pAKT and pERK 1/2 and compared with vehicle control (DMSO). A549 (FIG. 2A) and D54 (FIG. 2B) cells were treated with inhibitors at the indicated concentrations for 1 hour and subjected to Western blot analysis.
Western Blot Analysis. Cells were seeded in six-well dishes 24 hours prior to treatment and incubated with the respective inhibitor compound solutions for 1 h. Cells were washed with phosphatebuffered saline (PBS) and lysed with NP-40 lysis buffer (1% NP40, 150 mM NaCl, and 25 mM Tris, pH 8.0) supplemented with protease inhibitors (Complete protease inhibitor cocktail, Roche, Basel, Switzerland) and phosphatase inhibitors (PhosSTOP, Roche, Basel, Switzerland). Concentration of protein was determined using Lowry assays (Bio-Rad, Hercules, Calif.), and equal amounts of whole cell protein lysate were loaded in each lane and resolved using 4-12% gradient Bis-Tris gel (Invitrogen, CA). Proteins were transferred to 0.2 μm nitrocellulose membranes (Invitrogen, CA). Membranes were incubated overnight at 4° C. with primary antibodies after blocking, followed by incubation with appropriate horseradish peroxidase (HRP) conjugated secondary antibody at room temperature for 1 hour. ECL-Plus was used to detect the activity of peroxidase according to the manufacturer's protocol (Amersham Pharmacia, Uppsala, Sweden). Antibodies raised against phospho-p44/42 MAPK (Erk1/2) (Thr202/Tyr204), pAKT(5473), phospho-p70 S6K* and total ERK, AKT antibodies were purchased from Cell Signaling Technology (Beverly, Mass., USA), and anti-β actin (conjugated with HRP) was purchased from Abcam (Cambridge, Mass., USA). Secondary HRP antibodies were purchased from Jackson ImmunoResearch (St. Louis, Mo., USA).

[3] = read-out: PI3K Subtype Enzyme Inhibition Data IC50 PI3Kδ
[4] = table of additional PI3K inhibitors, read-out: PI3Kδ IC50
[5] = read-out: PI3K Subtype Enzyme Inhibition Data IC50 PI3Kα
[6] = table of additional PI3K inhibitors, read-out: PI3Kα IC50
[7] = read-out: PI3K Subtype Enzyme Inhibition Data IC50 PI3Kβ
[8] = table of additional PI3K inhibitors, read-out: PI3Kβ IC50
[9] = read-out: PI3K Subtype Enzyme Inhibition Data IC50 PI3Kγ
[10] = table of additional PI3K inhibitors, read-out: PI3Kγ IC50

Row | Structure (SMILES) | IC50 (PI3Kδ; [3]) [µM] | IC50 (PI3Kδ; [4]) [µM] | IC50 (PI3Kα; [5]) [µM] | IC50 (PI3Kα; [6]) [µM] | IC50 (PI3Kβ; [7]) [µM] | IC50 (PI3Kβ; [8]) [µM] | IC50 (PI3Kγ; [9]) [µM] | IC50 (PI3Kγ; [10]) [µM] | further results
1 | O=S(=O)(Nc1cc(-c2ccc3ncc(N4CCNCC4)nc3c2)cnc1Cl)c1ccc(F)cc1 [ST-5-27] |  |  |  |  |  |  |  |  | IC50 (PI3Kδ; read-out: PI3Kδ IC50): 0.00083 ± 6e-05 µM; IC50 (PI3Kα; read-out: PI3Kα IC50): < 0.000495 µM; IC50 (PI3Kβ; read-out: PI3Kβ IC50): 0.477 ± 0.00092 µM; IC50 (mTOR): 0.00597 ± 0.00027 µM; IC50 (PI3Kγ; read-out: PI3Kγ IC50): 0.514 ± 0.00023 µM
2 | O=C(NOCCNCCCCS(=O)(=O)N1CCN(c2nc(N3CCOCC3)nc(-n3c(C(F)F)nc4ccccc43)n2)CC1)c1ccc(F)c(F)c1Nc1ccc(I)cc1F [Compound 11] |  |  |  |  |  |  |  |  | IC50 (PI3K): 0.191 to 0.341 µM and 0.285 µM; IC50 (MEK1): 0.0567 ± 0.0013 µM
3 | OCCNc1nc(N2CCOCC2)nc(-n2c(C(F)F)nc3ccccc32)n1 [ST-187] | 0.0081 ± 0.0017 | 0.0081 ± 0.0017 | 0.0099 ± 0.0012 | 0.0099 ± 0.0012 | 0.071 ± 0.008 | 0.071 ± 0.008 | 0.054 ± 0.001 | 0.054 ± 0.001 | 
4 | NOCCOCCOCCOCCC(=O)N1CCN(c2nc(N3CCOCC3)nc(-n3c(C(F)F)nc4ccccc43)n2)CC1 [ST-167] |  |  |  |  | 0.214 ± 0.049 | 0.214 ± 0.049 | 0.14 ± 0.0066 | 0.14 ± 0.0066 | 
5 | O=C(NOCCOCCOCCOCCC(=O)N1CCN(c2cnc3ccc(-c4cnc(Cl)c(NS(=O)(=O)c5ccc(F)cc5)c4)cc3n2)CC1)c1ccc(F)c(F)c1Nc1ccc(I)cc1F [ST-182] |  |  |  |  |  |  |  |  | IC50 (PI3Kδ; read-out: PI3Kδ IC50): 0.00422 ± 0.00064 µM; IC50 (PI3Kα; read-out: PI3Kα IC50): 0.002 ± 0.0003 µM; IC50 (PI3Kβ; read-out: PI3Kβ IC50): 0.467 ± 0.044 µM; IC50 (mTOR): 0.0531 ± 0.0025 µM; IC50 (PI3Kγ; read-out: PI3Kγ IC50): 0.0341 ± 0.003 µM
6 | NCCNc1nc(N2CCOCC2)nc(-n2c(C(F)F)nc3ccccc32)n1 [ST-177] | 0.291 ± 0.032 | 0.291 ± 0.032 | 0.292 ± 0.031 | 0.292 ± 0.031 | 2.12 ± 0.444 | 2.12 ± 0.444 | 0.771 ± 0.063 | 0.771 ± 0.063 | 
7 | CN(CCOCCOCCONC(=O)c1ccc(F)c(F)c1Nc1ccc(I)cc1F)CC[N+](C)(C)CCOCCOCCC(=O)N1CCN(c2nc(N3CCOCC3)nc(-n3c(C(F)F)nc4ccccc43)n2)CC1 [ST-5-05] | 0.056 ± 0.013 |  | 0.039 ± 0.002 |  | 2.52 ± 0.557 |  | 2.59 ± 0.66 |  | 
8 | CC(=O)N1CCN(c2cnc3ccc(-c4cnc(Cl)c(NS(=O)(=O)c5ccc(F)cc5)c4)cc3n2)CC1 [ST-5-28] |  |  |  |  |  |  |  |  | IC50 (PI3Kδ; read-out: PI3Kδ IC50): < 0.000495 µM; IC50 (PI3Kα; read-out: PI3Kα IC50): < 0.000495 µM; IC50 (PI3Kβ; read-out: PI3Kβ IC50): 0.00536 ± 0.0011 µM; IC50 (mTOR): 0.00313 ± 0.00014 µM; IC50 (PI3Kγ; read-out: PI3Kγ IC50): 0.00071 ± 0.0002 µM
9 | NOCCOCCOCCOCCC(=O)N1CCN(c2cnc3ccc(-c4cnc(Cl)c(NS(=O)(=O)c5ccc(F)cc5)c4)cc3n2)CC1 [ST-5-29] |  |  |  |  |  |  |  |  | IC50 (PI3Kα; read-out: PI3Kα IC50): < 0.000495 µM; IC50 (PI3Kβ; read-out: PI3Kβ IC50): 0.00133 ± 0.00059 µM; IC50 (mTOR): 0.00677 ± 0.00043 µM; IC50 (PI3Kγ; read-out: PI3Kγ IC50): 0.0302 ± 0.00014 µM
10 | CN(CCOCCOCCONC(=O)c1ccc(F)c(F)c1Nc1ccc(I)cc1F)CCN(C)CCOCCOCCC(=O)N1CCN(c2nc(N3CCOCC3)nc(-n3c(C(F)F)nc4ccccc43)n2)CC1 [ST-180] | 0.052 ± 0.0014 |  | 0.039 ± 0.009 |  | 2.21 ± 0.425 |  | 0.717 ± 0.136 |  | Concurrent inhibition in tumor cell lines [1]: Concurrent inhibition was demonstrated
11 | CNCCNc1nc(N2CCOCC2)nc(-n2c(C(F)F)nc3ccccc32)n1 [ST-5-02] | 0.135 ± 0.019 | 0.135 ± 0.019 | 0.248 ± 0.024 | 0.248 ± 0.024 | 2.9 ± 0.375 | 2.9 ± 0.375 | 0.681 ± 0.09 | 0.681 ± 0.09 | 
12 | O=C(CNCCONC(=O)c1ccc(F)c(F)c1Nc1ccc(I)cc1F)NCCCCCC(=O)N1CCN(c2nc(N3CCOCC3)nc(-n3c(C(F)F)nc4ccccc43)n2)CC1 [Compound 7, N-(2-((2-((6-(4-(4-(2-(Difluoromethyl)-1H-benzo[d]imidazol-1-yl)-6-morpholino-1,3,5-triazin-2-yl)piperazin-1-yl)-6-oxohexyl)amino)-2-oxoethyl)amino)ethoxy)-3,4-difluoro-2-((2-fluoro-4-iodophenyl)amino)benzamide] |  |  |  |  |  |  |  |  | IC50 (MEK1): 0.0005 ± 0.0012 µM; PI3K activity indicated by level of pAKT [2]: high potency in inhibiting PI3K activity
13 | CC(=O)N1CCN(c2nc(N3CCOCC3)nc(-n3c(C(F)F)nc4ccccc43)n2)CC1 [ST-5-03] |  |  |  |  | 0.0143 ± 0.0025 | 0.0143 ± 0.0025 | 0.021 ± 0.001 | 0.021 ± 0.001 | 
14 | COCCNc1nc(N2CCOCC2)nc(-n2c(C(F)F)nc3ccccc32)n1 [ST-178] | 0.017 ± 0.001 | 0.017 ± 0.001 | 0.02 ± 0.003 | 0.02 ± 0.003 | 0.208 ± 0.015 | 0.208 ± 0.015 | 0.064 ± 0.005 | 0.064 ± 0.005 | 
15 | FC(F)c1nc2ccccc2n1-c1nc(N2CCNCC2)nc(N2CCOCC2)n1 |  |  |  |  |  |  |  |  | IC50 (PI3Kβ; mean ± SEM, read-out: PI3K Subtype Inhibition Activity PI3Kβ): 1.09 ± 0.168 µM; IC50 (PI3Kγ; mean ± SEM, read-out: PI3K Subtype Inhibition Activity PI3Kγ): 1.87 ± 0.283 µM
16 | CC(=O)NCCNc1nc(N2CCOCC2)nc(-n2c(C(F)F)nc3ccccc32)n1 [ST-5-22] | 0.0095 ± 0.0024 |  | 0.0166 ± 0.0014 |  | 0.199 ± 0.012 |  | 0.054 ± 0.0015 |  | 
17 | O=C(O)CCNc1nc(N2CCOCC2)nc(-n2c(C(F)F)nc3ccccc32)n1 [ST-5-25] | 0.06 ± 0.0034 | 0.06 ± 0.0034 | 0.0124 ± 0.0007 | 0.0124 ± 0.0007 | 0.787 ± 0.106 | 0.787 ± 0.106 | 0.0223 ± 0.0007 | 0.0223 ± 0.0007 | 
18 | CNC(=O)CCNc1nc(N2CCOCC2)nc(-n2c(C(F)F)nc3ccccc32)n1 [ST-5-21] | 0.026 ± 0.0049 | 0.026 ± 0.0049 | 0.02 ± 0.0004 | 0.02 ± 0.0004 | 0.431 ± 0.083 | 0.431 ± 0.083 | 0.067 ± 0.0028 | 0.067 ± 0.0028 | 
